Values quoted from earlier work in patent US12678449B2, “Compositions including cannabis and avocado/soybean unsaponifiables and methods of use” (Nutramax Laboratories, Inc., priority 2019, dated 2026).
Where two headings read alike, the source gives them in different places.

Experiments:
[1] = human
[2] = beagle dogs, oral, single dose

In the case of `C=C(C)[C@@H]1CCC(C)=C[C@H]1c1c(O)cc(CCCCC)cc1O` [CBD, 2-[(1R,6R)-3-methyl-6-prop-1-en-2-ylcyclohex-2-en-1-yl]-5-pentylbenzene-1,3-diol], the CMAX ([1]; 10 mg dose of CBD (Guy et al.)) is listed as 2.47 ng/mL, the “mean plasma concentration of CBD” value ([1]; 1 h after oral intake of 5.4 mg dose (Nadulski et al.)) is listed as 0.95 ng/mL and the “mean plasma level of CBD” value ([1]; oral administration of 40 mg of CBD (Agurell et al.)) is listed as 5.5 ng/mL. The “median maximal concentration of CBD in serum” value ([2]; 2 mg/kg CBD in olive oil) was 102.3 ng/mL and the “median maximal concentration of CBD in serum” value ([2]; 8 mg/kg CBD in olive oil) was 590.8 ng/mL.
